In patent US10189813B2, “Formylated N-heterocyclic derivatives as FGFR4 inhibitors” (NOVARTIS AG, priority 2015, dated 2019) one finds IC50 data, which are given here for two compounds.

The target of test [1] is BaF3-Tel-FGFR4 cells (TEL fused to cytoplasmic domain of FGFR4) (Homo sapiens, UniProt P22455). Kind of test: In vitro cellular kinase assay for FGFR4 (BaF3-Tel-FGFR4, MSD capture ELISA of tyrosine phosphorylation). As to conditions: 1 hour incubation. (In general: An ELISA detects its analyte on a solid surface through an enzyme-linked reagent.)
BaF3-Tel-FGFR4 cells (TEL fused to cytoplasmic domain of FGFR4), sequence (P22455 with tags, fused parts or gaps): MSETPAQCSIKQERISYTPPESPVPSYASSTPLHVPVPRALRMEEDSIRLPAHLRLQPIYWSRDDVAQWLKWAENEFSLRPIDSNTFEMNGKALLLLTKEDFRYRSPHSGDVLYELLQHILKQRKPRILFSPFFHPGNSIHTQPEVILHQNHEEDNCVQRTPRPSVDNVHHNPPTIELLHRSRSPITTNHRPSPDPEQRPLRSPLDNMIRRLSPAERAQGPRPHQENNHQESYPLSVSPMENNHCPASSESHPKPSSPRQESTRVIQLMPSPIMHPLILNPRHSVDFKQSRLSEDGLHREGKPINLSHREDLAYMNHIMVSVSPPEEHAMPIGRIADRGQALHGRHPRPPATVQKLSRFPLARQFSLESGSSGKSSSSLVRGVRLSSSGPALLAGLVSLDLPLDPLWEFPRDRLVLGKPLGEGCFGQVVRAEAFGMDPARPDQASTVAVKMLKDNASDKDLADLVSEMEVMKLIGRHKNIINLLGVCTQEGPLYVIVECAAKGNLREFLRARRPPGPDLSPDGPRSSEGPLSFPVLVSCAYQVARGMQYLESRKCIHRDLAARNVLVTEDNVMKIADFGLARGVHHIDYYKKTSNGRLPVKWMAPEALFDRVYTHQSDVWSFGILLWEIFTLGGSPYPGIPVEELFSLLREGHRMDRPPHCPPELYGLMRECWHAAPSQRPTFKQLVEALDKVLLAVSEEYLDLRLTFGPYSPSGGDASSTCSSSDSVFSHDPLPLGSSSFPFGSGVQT
The target of another test is T1, FGFR1 (407-822) (Homo sapiens, UniProt P11362).
T1 construct: FGFR1 (407-822)
T1 sequence (P11362 407-822): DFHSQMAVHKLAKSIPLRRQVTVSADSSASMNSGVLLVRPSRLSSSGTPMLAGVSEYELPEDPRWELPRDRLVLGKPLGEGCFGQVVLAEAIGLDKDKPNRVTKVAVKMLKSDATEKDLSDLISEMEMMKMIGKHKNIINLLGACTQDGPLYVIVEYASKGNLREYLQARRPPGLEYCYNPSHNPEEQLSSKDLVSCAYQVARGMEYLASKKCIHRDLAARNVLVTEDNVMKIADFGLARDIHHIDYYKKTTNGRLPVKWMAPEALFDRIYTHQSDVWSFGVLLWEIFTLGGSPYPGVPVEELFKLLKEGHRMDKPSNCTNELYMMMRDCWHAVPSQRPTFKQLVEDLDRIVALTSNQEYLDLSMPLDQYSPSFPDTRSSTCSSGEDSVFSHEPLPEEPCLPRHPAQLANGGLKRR
Kind of test: In vitro biochemical assay for FGFR1. As for the experimental part: (§1) Liquid handling and incubation steps were done on an Innovadyne Nanodrop Express equipped with a robotic arm (Thermo CatX, Caliper Twister II) and an incubator (Liconic STX40, Thermo Cytomat 2C450). The assay plates were prepared by addition of 50 nI per well of compound solution in 90% DMSO. […] Kinase reactions were incubated at 30° C. for 60 minutes and subsequently terminated by addition of 16 μl per well of stop solution (100 mM HEPES pH 7.5, 5% DMSO, 0.1% Caliper coating reagent, 10 mM EDTA, and 0.015% Brij35). Plates with terminated kinase reactions were transferred to the Caliper LC3000 workstations for reading. Phosphorylated and unphosphorylated peptides were separated using the Caliper microfluidic mobility shift technology. Briefly, samples from terminated kinase reactions were applied to the chip. Analytes are transported through the chip by constant buffer flow and the migration of the substrate peptide is monitored by the fluorescence signal of its label. Phosphorylated peptide (product) and unphosphorylated peptide (substrate) are separated in an electric field by their charge/mass ratio. Kinase activities were calculated from the amounts of formed phospho-peptide. IC50 values were determined from percent inhibition values at different compound concentrations by non-linear regression analysis.
(§2) In vitro biochemical assays for FGFR1 (407-822), FGFR2 (406-821) and FGFR3 (411-806) were conducted in a similar manner to the in vitro biochemical assay for FGFR4 described above, using the indicated portions of the kinase domains. The following examples all produced IC50 values >10000 nM in the biochemical FGFR1, FGFR2 and FGFR3 assays: 2, 3, 4, 11, 13, 16, 17, 18, 20, 28, 30.

Test [2] relates to HuH-7 hepatocellular carcinoma cells. Kind of test: CellTiter Glo (CTG) proliferation/viability assay. Format: cell-based. Conditions: Homo sapiens, Huh-7, 72 h, HuH-7 cells, 3 days, half-maximal growth inhibition (GI50), read-out: HUH7 proliferation CTG. As for the experimental part:
CellTiter Glo (CTG) Assay:
The functional effect of compounds on cell proliferation is assessed using HuH-7 hepatocellular carcinoma cells obtained from the Japanese Collection of Research Bioresources Cell Bank (Cat# JCRB0403) and cultured in the vendor-recommended medium (DMEM high glucose (Amimed Cat#1-26F01-I), 10% foetal calf serum (Invitrogen Cat#16140-071), 1 mM sodium pyruvate (Amimed Cat#5-60F00-H), 1× Penicillin/Streptomycin (Amimed Cat#4-01F00-H)) at 37° C. in a humidified 5% CO2 incubator. Compound-mediated suppression of cell proliferation/viability is assessed by quantification of cellular ATP levels using the CellTiter-Glo (CTG) reagent (Promega, Cat# G7573). Briefly, cells are seeded at 3′000 cells/well/80 μl fresh medium into tissue-culture-treated 96-well plates (Costar Cat#3904), followed by addition of 20 μl medium containing compound dilutions at 5-fold their final intended concentration. Dose-response effects are assessed by 3-fold serial dilutions of the test compound, starting at 10 μM. Following incubation of the cells for 3 days at 37° C. and 5% CO2, the effect of inhibitors on cell viability is quantified following addition of 50 μl CTG and luminescence measurement (integration time: 500 ms) as per vendor manual, using a correspondingly equipped multi-mode plate reader (M200Pro, TECAN, Switzerland). For data analysis, the assay background value determined in wells containing medium, but no cells, is subtracted from all data points. To enable differentiation of cytotoxic from cytostatic compounds, the number of viable cells is assessed relative to that observed at the time of compound addition using a separate cell plate (day 0). The effect of a particular test compound concentration on cell proliferation/viability is expressed as percentage of the background- and day 0-corrected luminescence reading obtained for cells treated with vehicle only (DMSO, 0.1% f.c.), which is set as 100%, whereas the luminescence reading for wells containing medium only, but no cells, is set as −100%. Compound concentrations leading to half-maximal growth inhibition (GI50) are determined using standard four parameter curve fitting (XLfit 5.2., IDBS, UK).
A general note: Cellular ATP, detected with luciferase, serves as a proxy for viable cell number.

For test [3] the test system is unchanged. Kind of test: Methylene blue staining proliferation assay (MBS). The class given is cell-based. Conditions: Homo sapiens, HuH-7 cells, 72 hours, read-out: HUH7 proliferation MBS. As for the experimental part:
Methylene Blue Staining Proliferation Assay (MBS):
The effect of compounds on cell proliferation is assessed using HuH-7 hepatocellular carcinoma cells obtained from the Japanese Collection of Research Bioresources Cell Bank (Cat# JCRB0403) and cultured in the vendor-recommended medium (DMEM high glucose (Amimed Cat#1-26F01-I), 10% foetal calf serum (Invitrogen Cat#16140-071), 1 mM sodium pyruvate (Amimed Cat#5-60F00-H), 1× Penicillin/Streptomycin (Amimed Cat#4-01F00-H)) at 37° C. in a humidified 5% CO2 incubator. […] 72 hours after compound addition, cells were fixed by adding 25 μL/well of 20% glutaraldehyde (Sigma Aldrich Cat# G400-4) and incubated for 10 minutes at room temperature. Cells were washed three times with H2O, 200 μL/well and stained with 100 μL/well 0.05% methylene blue (ABCR GmbH Cat# AB117904) for 10 minutes at room temperature. Cells were washed 3 times with H2O, 200 μL/well and then lysed by adding 200 μL/well of 3% HCl (Fluka Cat#84422) for 30 minutes at room temperature with shaking. Optical density was measured at A650 nm. The concentration of compound providing 50% of proliferation inhibition with respect to DMSO-treated cells was determined (IC50) using XLFit software.

The target in test [4] is T2, FGFR4 (GST-FGFR4(388-802)) (Homo sapiens, UniProt P22455).
T2 construct: GST-FGFR4(388-802); GST (N); made in house; host or cells: insect cells
T2 sequence (P22455 388-802): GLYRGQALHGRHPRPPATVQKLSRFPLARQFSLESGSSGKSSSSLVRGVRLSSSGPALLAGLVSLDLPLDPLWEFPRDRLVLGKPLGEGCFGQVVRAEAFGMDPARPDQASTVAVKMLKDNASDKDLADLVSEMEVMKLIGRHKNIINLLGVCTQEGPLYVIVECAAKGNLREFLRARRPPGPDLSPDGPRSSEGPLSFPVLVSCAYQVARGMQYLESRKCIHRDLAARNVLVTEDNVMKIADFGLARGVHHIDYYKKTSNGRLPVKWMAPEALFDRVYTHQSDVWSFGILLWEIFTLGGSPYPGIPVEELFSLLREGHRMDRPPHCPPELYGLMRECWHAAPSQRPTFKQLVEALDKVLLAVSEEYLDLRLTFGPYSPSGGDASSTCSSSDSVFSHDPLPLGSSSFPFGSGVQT
The test can be described thus: In-vitro biochemical kinase assay for FGFR4 (Caliper mobility shift). As to conditions: 60 minutes at 30° C. As for the experimental part:
In-Vitro Biochemical Kinase Assays for FGFR4
All assays were performed in 384 well microtiter plates. Each assay plate contained 8-point serial dilutions for 40 test compounds, as well as four 8-point serial dilutions of staurosporine as reference compound, plus 16 high and 16 low controls.
as §1
Preparation of Compound Dilutions
Test compounds were dissolved in DMSO (10 mM) and transferred into 1.4 mL flat bottom or V-shaped Matrix tubes carrying a unique 2D matrix. The stock solutions were stored at […] if not used immediately. For the test procedure the vials were defrosted and identified by a scanner whereby a working sheet was generated that guided the subsequent working steps.
Compound dilutions were made in 96 well plates. This format enabled the assay of maximally 40 individual test compounds at 8 concentrations (single points) including 4 reference compounds. The dilution protocol included the production of “pre-dilution plates”, “master plates” and “assay plates”.
96 polypropylene well plates were used as pre-dilution plates. A total of 4 pre-dilution plates were prepared including 10 test compounds each on the plate positions A1-A10, one standard compound at A11 and one DMSO control at A12. All dilution steps were done on a HamiltonSTAR robot.
These plates were used directly for the assay which was performed in a total volume of 9.05 μL.

For a further test, the target named is T3, FGFR3 (411-806) (Homo sapiens, UniProt P22607).
T3 construct: FGFR3 (411-806)
T3 sequence (P22607 411-806): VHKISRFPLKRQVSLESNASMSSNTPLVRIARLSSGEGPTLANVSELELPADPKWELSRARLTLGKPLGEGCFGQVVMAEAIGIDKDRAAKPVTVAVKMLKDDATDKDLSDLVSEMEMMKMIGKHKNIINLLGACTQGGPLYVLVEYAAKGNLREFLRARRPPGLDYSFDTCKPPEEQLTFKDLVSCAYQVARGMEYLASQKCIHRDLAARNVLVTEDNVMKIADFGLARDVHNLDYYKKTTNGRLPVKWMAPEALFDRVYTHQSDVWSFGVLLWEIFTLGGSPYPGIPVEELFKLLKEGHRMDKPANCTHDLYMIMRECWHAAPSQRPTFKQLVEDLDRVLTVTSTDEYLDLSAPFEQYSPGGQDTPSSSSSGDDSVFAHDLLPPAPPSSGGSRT
The test can be described thus: In vitro biochemical assay for FGFR3. As for the experimental part: as §1, §2

In a further test the target is T4, FGFR2 (406-821) (Homo sapiens, UniProt P21802).
T4 construct: FGFR2 (406-821)
T4 sequence (P21802 406-821): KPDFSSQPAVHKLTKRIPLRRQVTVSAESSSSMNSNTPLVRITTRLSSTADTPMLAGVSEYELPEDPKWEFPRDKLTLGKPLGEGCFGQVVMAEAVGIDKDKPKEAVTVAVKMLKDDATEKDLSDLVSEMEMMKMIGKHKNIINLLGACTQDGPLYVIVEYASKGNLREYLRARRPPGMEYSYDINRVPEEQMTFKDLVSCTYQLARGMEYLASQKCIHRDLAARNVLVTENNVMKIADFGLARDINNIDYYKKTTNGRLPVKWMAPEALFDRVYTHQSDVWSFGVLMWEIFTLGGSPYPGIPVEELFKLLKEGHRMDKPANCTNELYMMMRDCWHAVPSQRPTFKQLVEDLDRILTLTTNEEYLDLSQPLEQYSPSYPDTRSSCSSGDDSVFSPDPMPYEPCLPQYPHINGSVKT
Kind of test: In vitro biochemical assay for FGFR2. How it is done: as §1, §2

Structures are written as SMILES.

Regarding `CC(C)Oc1cc(NC(=O)N(C)c2ccc(C(F)F)c(C=O)n2)ncc1C#N` [Example 18, 3-(5-cyano-4-isopropoxypyridin-2-yl)-1-(5-(difluoromethyl)-6-formylpyridin-2-yl)-1-methylurea], the IC50 in test [1] was 25 nM; at FGFR1 (407-822), above 10000 nM; in test [2], 463 nM; in test [3] it was 191 nM; in test [4], 1.9 nM; against FGFR3 (411-806), above 10000 nM. The compound also had an IC50 against FGFR2 (406-821) above 10000 nM.

Regarding `COCCNc1cc(NC(=O)N(C)c2ccc(C(F)F)c(C=O)n2)ncc1C#N` [Example 16, 3-(5-cyano-4-((2-methoxyethyl)amino)pyridin-2-yl)-1-(5-(difluoromethyl)-6-formylpyridin-2-yl)-1-methylurea], the IC50 in test [1] was 7.7 nM; on FGFR1 (407-822), above 10000 nM; in test [2], 90 nM; in test [3] it was 51 nM; in test [4], 2.7 nM; at FGFR3 (411-806) it was above 10000 nM. In addition, the IC50 against FGFR2 (406-821) is above 10000 nM.
